Literature values as cited in US6376531B1, “Method of treatment using deuterium compounds” (priority 1998, dated 2002).

How the values were obtained:
[1] = tested on: mouse; settings: Hayes and Palmer, Experientia 1976
[2] = tested on: mice; settings: Hayes and Palmer 1976, 1972

SMILES | solubility in aqueous solutions | solubility in water | further results
N[C@@H](Cc1c[nH]c2ccc(O)cc12)C(=O)O [5-hydroxytryptophan] | soluble |  | 
[2H]O[2H] [Deuterium oxide] |  |  | spontaneous locomotor activity [1]: suppressed; effect on the period and entrainment of the light-dark (LD) cycle [2]: chronomutagenic effect
COc1ccc2[nH]cc(CCNC(C)=O)c2c1 [Melatonin] | soluble | soluble | 
CSCC[C@H](N)C(=O)O [Methionine] |  | soluble | 
NC[C@H](O)c1ccc(O)c(O)c1 [Norepinephrine] | freely soluble |  | 
NCCc1c[nH]c2ccc(O)cc12 [Serotonin] | soluble |  | 
NCCc1c[nH]c2ccccc12 [Tryptamine] | practically insoluble |  | 
N[C@@H](Cc1c[nH]c2ccccc12)C(=O)O [Tryptophan] |  | soluble | 
